This is an account of results in PubChem BioAssay (NCI).

Common to all, as to assay: NCI anticancer screen, dose series, 48 h
Assay [1] relates to SF-539 CNS.
The test system of assay [2] is MALME-3M melanoma.
Assay [3] deals with SK-MEL-28 melanoma.
The test system of assay [4] is SF-268 CNS.
Assay [5] relates to OVCAR-8 ovarian.
The test system of assay [6] is M14 melanoma.
Assay [7] has as its system 786-0 renal.
Assay [8] has as its system HCT-15 colon.
Assay [9] has as its system UO-31 renal.
For assay [10], the system named is HCT-116 colon.

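Tested at 5 concentrations; 48 h exposure; 96-well plates; endpoints linearly interpolated, else capped at highest concentration. GI50 = concentration required for 50% inhibition of growth. The concentration for full growth arrest is given as TGI.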 Where a SMILES comes first, the peptide text is derived from it. [ ]: non-standard residue; d: D form. Phe(4-Cl) = N[CH](Cc1ccc(Cl)cc1)C(=O)O

For the molecule `O=C(O)CN(c1ccccc1)S(=O)(=O)c1ccccc1[N+](=O)[O-]`, the TGI in [1], in [2], in assay [3], in assay [4], in assay [5] and in assay [6] was more than 100 µM in each case. For the same molecule, the TGI in assay [7], in assay [8] and in assay [9] was more than 100 µM in each case.
`COC(=O)C(=O)C(C(=O)C(=O)Nc1ccccc1C(N)=O)c1nc2ccc(Cl)cc2[nH]c1=O` (stereo unspecified): the TGI in assay [1], in assay [3], in assay [10], in assay [4], in assay [5] and in assay [6] was more than 100 µM throughout. The TGI in assay [7], in assay [8] and in assay [9] was more than 100 µM in each case.
For `NC(N)=NCCCn1c2c(c3ccccc3c1=O)C(=O)c1ccccc1-2`, the GI50 in assay [1] was 0.369 µM; in assay [2], 18.6 µM; in assay [3], 28.6 µM; in [10], 22.3 µM; in assay [4], 1.53 µM; in [5], 36 µM. For the same molecule, the values for the GI50 in [6] and in assay [7] were 18.7 µM and 0.681 µM, respectively. Further, the TGI was 2.14 µM in assay [1]; 45.1 µM in assay [2]; more than 100 µM in assay [3]; 45.6 µM in assay [10]; 9.45 µM in assay [4]; more than 100 µM in assay [5]. In addition, the figures for the TGI in assay [6] and in assay [7] were 34.5 µM and 3.29 µM, respectively.
Consider `CC(O)C(NC(=O)C(Cc1ccccc1)NC(=O)C(NC(=O)C(CCCCN)NC(=O)C(Cc1c[nH]c2ccccc12)NC(=O)C(Cc1ccc(O)cc1)NC(=O)C(Cc1ccc(Cl)cc1)NC(=O)C(N)Cc1ccccc1)C(C)O)C(N)=O` (stereo unspecified) (H-F[Phe(4-Cl)]YWKTFT-NH2; configuration not given here), for which the TGI came to 42.3 µM in assay [1]; 41.8 µM in assay [3]; 49 µM in [10]; 67.5 µM in assay [5]; 47.1 µM in [6]; 41.3 µM in assay [7]. For the same molecule, the TGI stood at 41.5 µM in assay [8] and 37.5 µM in assay [9].
In the case of `CCN(CC)CCN1CC(O)=C(c2nc(-c3ccc(Cl)cc3)cs2)C1=N`, the GI50 was 1.55 µM in assay [1]; 1.69 µM in [2]; 1.86 µM in [3]; 1.78 µM in assay [10]; 1.87 µM in assay [4]; 5.61 µM in [5]. For the same molecule, the results for the GI50 in assay [7], in [8] and in [9] were 1.62 µM, 1.58 µM and 3.83 µM, respectively. For the same molecule, the TGI in assay [1] is 3.11 µM; in assay [2], 3.22 µM; in [3], 3.49 µM; in assay [10], 4.16 µM; in assay [4] it was 3.93 µM; in assay [5], more than 100 µM. Besides, the TGI in [7] was 3.19 µM; in assay [8], 3.42 µM; in assay [9], 20.2 µM.
For the molecule `Clc1nc(Cl)c2ncn(Cc3cccc(COc4cccc(OCc5cccc(Cn6cnc7c(Cl)nc(Cl)nc76)c5)c4)c3)c2n1`, the GI50 in [1] is more than 100 µM; in assay [2], more than 100 µM; in assay [3], 90.3 µM; in assay [4], more than 100 µM; in assay [5], 24.7 µM; in [6], 26.1 µM. Further, the values for the GI50 in assay [7], in [8] and in assay [9] were 74.8 µM, 39 µM and 66.4 µM, respectively. In addition, the TGI in assay [1], in assay [2], in assay [3], in [4], in assay [5] and in assay [6] was more than 100 µM in each case. In addition, the TGI in assay [7], in assay [8] and in assay [9] was more than 100 µM each time.
`O=C(O)CC1OCC=C2CN3CCC45c6ccccc6NC4C1C2CC35` (stereo unspecified): the TGI in [1], in assay [3], in [10], in [4], in assay [5] and in assay [6] was more than 100 µM in each case. For the same molecule, the TGI in [7], in assay [8] and in [9] was more than 100 µM each time.
On to `CCOC(=O)CN=c1nc(SC)sc2c(C(=O)OCC)nc(Sc3ccccc3)n12`, for which the TGI in [2], in assay [10], in [4], in assay [5], in assay [6] and in [7] was more than 100 µM throughout. Moreover, the TGI in assay [9] was more than 100 µM.
With `NC(CC(=O)OCc1ccccc1)C(=O)OCc1ccccc1` (stereo unspecified), the TGI in assay [1], in [3], in [10], in [4], in assay [5] and in assay [6] was more than 100 µM in each case. The TGI in [7], in [8] and in [9] was more than 100 µM in each case.
On to `Cc1noc(C)c1CCCOC1COc2ccccc2OCCOCCOc2ccccc2OC1`, for which the TGI in assay [1], in assay [2], in assay [3], in assay [4], in [5] and in [6] was more than 100 µM in each case. The TGI in assay [7], in assay [8] and in [9] was more than 100 µM throughout.
As to `CCOC(=O)c1cc(/C(=N\O)c2cc(OC)c(OC)c(OC)c2)n2cc(C)cc(C)c12`, the GI50 is 1.44 µM in assay [2]; 1.86 µM in [10]; 3.9 µM in [4]; 5.38 µM in assay [5]; 2.08 µM in [6]; 3.01 µM in assay [7]. For the same molecule, the GI50 in [8] was 2.82 µM. Besides, the TGI in [2] is 3.98 µM; in assay [10], 3.93 µM; in assay [4], more than 100 µM; in [5], more than 100 µM; in [6] it was 6.45 µM; in assay [7], 10 µM. In assay [8], this molecule displayed a TGI of more than 100 µM.
